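All cell lines were grown in 96-well plates and treated with compound for 48 hours. At the GI50, growth is halved.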 The source made the active and inactive calls. No stated cut-off is given here; in the data, active = GI50 up to about 1.1 µM and inactive = higher. Where a SMILES comes first, the peptide text is derived from it. [ ]: non-standard residue; d: D form. The star is where a group is joined. Octanoyl = CCCCCCCC(=O)*; Aib = CC(C)(N)C(=O)O; tBu = CC(C)(C)*
Experiments:
Assay in all cases: NCI tumour cell line growth inhibition, 48 h
SK-OV-3 = tested on: SK-OV-3
SK-MEL-2 = tested on: SK-MEL-2
RPMI-8226 = tested on: RPMI-8226
NCI-H522 = tested on: NCI-H522
M14 = tested on: M14
LOX IMVI = tested on: LOX IMVI
A498 = tested on: A498
T47D = tested on: T47D
U-251 = tested on: U-251
NCI-H23 = tested on: NCI-H23
EKVX = tested on: EKVX
IGROV-1 = tested on: IGROV-1
MDA-MB-435 = tested on: MDA-MB-435
DU-145 = tested on: DU-145
SNB-75 = tested on: SNB-75
OVCAR-5 = tested on: OVCAR-5
CAKI-1 = tested on: CAKI-1
HOP-62 = tested on: HOP-62
OVCAR-8 = tested on: OVCAR-8
SF-268 = tested on: SF-268

Structure (SMILES)	GI50 (SK-OV-3)	GI50 (SK-MEL-2)	GI50 (RPMI-8226)	GI50 (NCI-H522)	GI50 (M14)	GI50 (LOX IMVI)	GI50 (A498)	GI50 (T47D)	GI50 (U-251)	GI50 (NCI-H23)	GI50 (EKVX)	GI50 (IGROV-1)	GI50 (MDA-MB-435)	GI50 (DU-145)	GI50 (SNB-75)	GI50 (OVCAR-5)	GI50 (CAKI-1)	GI50 (HOP-62)	GI50 (OVCAR-8)	GI50 (SF-268)
[N-]=[N+]=Nc1c([N+](=O)[O-])c(=O)n(-c2ccccc2)c2ccccc12	57.9 µM (inactive)	17.9 µM (inactive)	16 µM (inactive)	25.8 µM (inactive)	27.2 µM (inactive)	17.5 µM (inactive)	73.5 µM (inactive)	29.1 µM (inactive)	20.7 µM (inactive)	22 µM (inactive)	16.7 µM (inactive)	21.7 µM (inactive)	21 µM (inactive)	35.2 µM (inactive)	20.1 µM (inactive)	> 100 µM (inactive)	21.5 µM (inactive)	43.7 µM (inactive)	20.1 µM (inactive)	22.5 µM (inactive)
C=CCNC(=S)NC=C(C(N)=O)C(N)=O	> 100 µM (inactive)	> 100 µM (inactive)	> 100 µM (inactive)	> 100 µM (inactive)	> 100 µM (inactive)	> 100 µM (inactive)	< 0.01 µM (active)	> 100 µM (inactive)	> 100 µM (inactive)	> 100 µM (inactive)	> 100 µM (inactive)	> 100 µM (inactive)	> 100 µM (inactive)	> 100 µM (inactive)	> 100 µM (inactive)	> 100 µM (inactive)	> 100 µM (inactive)	> 100 µM (inactive)	> 100 µM (inactive)	> 100 µM (inactive)
C=C(Br)C/N=C/N(C)C	> 100 µM (inactive)	> 100 µM (inactive)	> 100 µM (inactive)	> 100 µM (inactive)	> 100 µM (inactive)	> 100 µM (inactive)	> 100 µM (inactive)	> 100 µM (inactive)	> 100 µM (inactive)	> 100 µM (inactive)	> 100 µM (inactive)	> 100 µM (inactive)	> 100 µM (inactive)	> 100 µM (inactive)	> 100 µM (inactive)	> 100 µM (inactive)	> 100 µM (inactive)	> 100 µM (inactive)	> 100 µM (inactive)	> 100 µM (inactive)
O=S(=O)(Nc1ccccc1S(=O)(=O)c1ccccc1)c1ccccc1	> 100 µM (inactive)	64.3 µM (inactive)	32.3 µM (inactive)	41.2 µM (inactive)	> 100 µM (inactive)	> 100 µM (inactive)	91.8 µM (inactive)	59.3 µM (inactive)	41.1 µM (inactive)	46.7 µM (inactive)	29.4 µM (inactive)	> 100 µM (inactive)	> 100 µM (inactive)	87.9 µM (inactive)	> 100 µM (inactive)	> 100 µM (inactive)	> 100 µM (inactive)	> 100 µM (inactive)	68.5 µM (inactive)	91 µM (inactive)
CCOCCOC(=O)C1CCC(=O)N1CN(C(C)=O)c1cc(OC)ccc1OC (stereo not given)	> 100 µM (inactive)	> 100 µM (inactive)	> 100 µM (inactive)	> 100 µM (inactive)	> 100 µM (inactive)	> 100 µM (inactive)	> 100 µM (inactive)	> 100 µM (inactive)	> 100 µM (inactive)	> 100 µM (inactive)	> 100 µM (inactive)	> 100 µM (inactive)	> 100 µM (inactive)	> 100 µM (inactive)	> 100 µM (inactive)	> 100 µM (inactive)	> 100 µM (inactive)	> 100 µM (inactive)	> 100 µM (inactive)	> 100 µM (inactive)
CCOC(=O)c1[nH]cc(C)c1-c1c[nH]c2ccccc12	32.3 µM (inactive)	29.4 µM (inactive)	7.35 µM (inactive)	24.6 µM (inactive)	24.9 µM (inactive)	18 µM (inactive)	59.6 µM (inactive)	36.3 µM (inactive)	19.7 µM (inactive)	27.2 µM (inactive)	> 63.8 µM (inactive)	33.2 µM (inactive)	26 µM (inactive)	45 µM (inactive)	28.1 µM (inactive)	39.7 µM (inactive)	37.1 µM (inactive)	35.3 µM (inactive)	27.1 µM (inactive)	23.7 µM (inactive)
CCCCC(=O)OC[n+]1ccc2c(C)c3[nH]c4ccccc4c3c(C)c2c1	0.74 µM (active)	1.97 µM (inactive)	0.195 µM (active)	0.773 µM (active)	1.34 µM (inactive)	0.493 µM (active)	0.681 µM (active)	1.01 µM (active)	0.574 µM (active)	0.14 µM (active)	0.497 µM (active)	0.502 µM (active)	0.618 µM (active)	1.04 µM (active)	1.28 µM (inactive)	0.525 µM (active)	1.25 µM (inactive)	0.537 µM (active)	0.385 µM (active)	0.46 µM (active)
c1ccc2c(-c3cnc(-c4c[nH]c5ccccc45)cn3)c[nH]c2c1	49.1 µM (inactive)	70.3 µM (inactive)	45.3 µM (inactive)	28.6 µM (inactive)	29.1 µM (inactive)	29.3 µM (inactive)	> 100 µM (inactive)	66.5 µM (inactive)	49.7 µM (inactive)	61.8 µM (inactive)	73.6 µM (inactive)	30.8 µM (inactive)	24.9 µM (inactive)	> 100 µM (inactive)	22.6 µM (inactive)	46.1 µM (inactive)	74.8 µM (inactive)	37.8 µM (inactive)	39.4 µM (inactive)	50.6 µM (inactive)
CCCCCCCC(=O)NC(C)(C)C(=O)NC(COC(C)(C)C)C(=O)NC(CC(C)C)C(=O)NC(C)(C)C(=O)NC(COC(C)(C)C)C(=O)NC(COC(C)(C)C)C(=O)NC(CC(C)C)C(=O)NC(C)(C)C(=O)NC(COC(C)(C)C)C(=O)NC(C(=O)NC(CC(C)C)C(=O)OC)C(C)CC (stereo not given) (Octanoyl-[Aib]S(tBu)L[Aib]S(tBu)S(tBu)L[Aib]S(tBu)IL-OMe; configuration not given here)	11.8 µM (inactive)	6.01 µM (inactive)	2.72 µM (inactive)	6.41 µM (inactive)	6.32 µM (inactive)	5.61 µM (inactive)	5.5 µM (inactive)	6.38 µM (inactive)	5.24 µM (inactive)	4.7 µM (inactive)	6.22 µM (inactive)	5.7 µM (inactive)	7.94 µM (inactive)	6.9 µM (inactive)	5.24 µM (inactive)	6.5 µM (inactive)	18.5 µM (inactive)	9.31 µM (inactive)	8.65 µM (inactive)	9.95 µM (inactive)
